According to patent publication US8748426B2, “Inhibitors of diacylglycerol acyl transferase” (Piramal Enterprises Limited, priority 2009, dated 2014):

Target: T1, hDGAT1 (Homo sapiens, UniProt O75907)
T1 sequence (O75907 1-488): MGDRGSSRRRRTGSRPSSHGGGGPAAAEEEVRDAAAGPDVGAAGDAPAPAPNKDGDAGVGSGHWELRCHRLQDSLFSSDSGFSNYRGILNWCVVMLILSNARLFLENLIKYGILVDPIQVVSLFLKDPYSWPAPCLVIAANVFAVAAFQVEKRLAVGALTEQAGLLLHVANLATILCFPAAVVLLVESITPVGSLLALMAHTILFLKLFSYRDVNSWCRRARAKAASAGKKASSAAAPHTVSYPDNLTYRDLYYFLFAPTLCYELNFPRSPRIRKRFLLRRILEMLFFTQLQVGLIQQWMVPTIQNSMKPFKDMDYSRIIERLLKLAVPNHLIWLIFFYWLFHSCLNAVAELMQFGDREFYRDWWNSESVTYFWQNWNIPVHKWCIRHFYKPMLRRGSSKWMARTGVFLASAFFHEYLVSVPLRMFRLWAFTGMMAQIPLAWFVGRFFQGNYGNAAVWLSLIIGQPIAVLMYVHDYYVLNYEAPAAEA
Assay: In-vitro DGAT1 assay (14C oleoyl CoA, hDGAT1 microsomes from Sf9 cells)
Conditions: for inhibition at 1 µM: read-out: % Inhibition of hDGAT1

Compound | inhibition at 1 µM | % Inhibition of hDGAT1 (at 1 μM)
CCCCOc1ccc(C(=O)Nc2ccc(-c3ccc4c(c3)C(=O)N([C@H](C(=O)O)C(C)C)C4)c(C(F)(F)F)c2)cc1 [Example 432, (S)-2-(6-(4-(4-Butoxybenzamido)-2-(trifluoromethyl)phenyl)-1-oxoisoindolin-2-yl)-3-methylbutanoic acid] | 10 to 50% | –
COc1ccc(C(=O)Nc2ccc(-c3ccc4c(c3)CN([C@H](C(=O)O)C(C)C)C4=O)cc2)cc1 [Example 311, (S)-2-(5-(4-(4-Methoxybenzamido)phenyl)-1-oxoisoindolin-2-yl)-3-methyl butanoic acid] | 10 to 50% | –
COc1ccc(C(=O)Nc2ccc(-c3ccc4c(c3)C(=O)N([C@H](C(=O)O)C(C)C)C4)cc2)c(OC)c1 [Example 156, (S)-2-(6-(4-(2,4-Dimethoxybenzamido)phenyl)-1-oxoisoindolin-2-yl)-3-methyl butanoic acid] | > 50% | –
CC(C)[C@@H](C(=O)O)N1Cc2cc(-c3ccc(NC(=O)Nc4ccc(C#N)cc4)cc3)ccc2C1=O [Example 253, (S)-2-(5-(4-(3-(4-Cyanophenyl)ureido)phenyl)-1-oxoisoindolin-2-yl)-3-methylbutanoic acid] | > 50% | –
CCCCc1ccc(C(=O)Nc2ccc(-c3ccc4c(c3)C(=O)N([C@H](C(=O)O)C(C)C)C4)cc2)cc1 [Example 164, (S)-2-(6-(4-(4-Butylbenzamido)phenyl)-1-oxoisoindolin-2-yl)-3-methylbutanoic acid] | > 50% | –
O=C(O)CCCN1Cc2cc(-c3ccc(NC(=O)Nc4cccc(C(F)(F)F)c4)cc3)ccc2C1=O [Example 376, 4-(1-Oxo-5-(4-(3-(3-(trifluoromethyl)phenyl)ureido)phenyl)isoindolin-2-yl)butanoic acid] | 10 to 50% | –
O=C(Nc1ccc(-c2ccc3c(c2)C(=O)N(C2(C(=O)O)CCCC2)C3)cc1)c1ccc(OC(F)(F)F)cc1 [Example 535, 1-(1-Oxo-6-(4-(4-(trifluoromethoxy)benzamido)phenyl)isoindolin-2-yl)cyclopentane carboxylic acid] | > 50% | –
CC(C)[C@@H](C(=O)O)N1Cc2ccc(-c3ccc(NC(=O)Nc4ccc(F)c(F)c4)c(F)c3)cc2C1=O [Example 440, (S)-2-(6-(4-(3-(3,4-Difluorophenyl)ureido)-3-fluorophenyl)-1-oxoisoindolin-2-yl)-3-methylbutanoic acid] | > 50% | –
O=C(Nc1ccc(-c2ccc3c(c2)CN(C2(C(=O)O)CCCC2)C3=O)cc1)Nc1cccc(C(F)(F)F)c1 [Example 370, 1-(1-Oxo-5-(4-(3-(3-(trifluoromethyl)phenyl)ureido)phenyl)isoindolin-2-yl)cyclopentanecarboxylic acid] | 10 to 50% | –
COc1ccc(NC(=O)Nc2ccc(-c3ccc4c(c3)C(=O)N([C@H](C(=O)O)C(C)C)C4)cc2)cc1 [Example 28, (S)-2-(6-(4-(3-(4-Methoxyphenyl)ureido)phenyl)-1-oxoisoindolin-2-yl)-3-methylbutanoic acid] | 10 to 50% | –
CC(C)[C@@H](C(=O)O)N1Cc2ccc(-c3ccc(NC(=O)c4c(F)cccc4F)cc3)cc2C1=O [Example 138, (S)-2-(6-(4-(2,6-Difluorobenzamido)phenyl)-1-oxoisoindolin-2-yl)-3-methyl butanoic acid] | 10 to 50% | –
CCCCOc1ccc(C(=O)Nc2ccc(-c3ccc4c(c3)C(=O)N([C@H](C(=O)O)C(C)C)C4)c(OC)c2)cc1 [Example 460, (S)-2-(6-(4-(4-Butoxybenzamido)-2-methoxyphenyl)-1-oxoisoindolin-2-yl)-3-methylbutanoic acid] | 10 to 50% | –
CC(C)[C@@H](C(=O)O)N1Cc2ccc(-c3ccc(NC(=O)c4ccccc4Oc4ccccc4)cc3)cc2C1=O [Example 152, (S)-3-Methyl-2-(1-oxo-6-(4-(2-phenoxybenzamido)phenyl)isoindolin-2-yl)butanoic acid] | > 50% | –
CC(C)[C@@H](C(=O)O)N1Cc2ccc(-c3ccc(NC(=O)Nc4ccccc4Oc4ccccc4)cc3)cc2C1=O [Example 48, (S)-3-Methyl-2-(1-oxo-6-(4-(3-(2-phenoxyphenyl)ureido)phenyl)isoindolin-2-yl)butanoic acid] | > 50% | –
CC(C)[C@@H](C(=O)O)N1Cc2cc(-c3ccc(NC(=O)Nc4ccccc4F)cc3)ccc2C1=O [Example 227, (S)-2-(5-(4-(3-(2-Fluorophenyl)ureido)phenyl)-1-oxoisoindolin-2-yl)-3-methyl butanoic acid] | > 50% | –

Now from value to molecule:

inhibition at 1 µM | % Inhibition of hDGAT1 (at 1 μM) | Compound
> 50% | – | Cc1oc(-c2ccccc2)nc1C(=O)Nc1ccc(-c2ccc3c(c2)C(=O)N(C2CCCC(C(=O)O)C2)C3)cc1 (centres unmarked) [Example 553, 3-(6-(4-(5-Methyl-2-phenyloxazole-4-carboxamido)phenyl)-1-oxoisoindolin-2-yl)cyclohexanecarboxylic acid]
10 to 50% | – | CC(C)[C@@H](C(=O)O)N1Cc2ccc(-c3ccc(NC(=O)Nc4ccc5c(c4)CCC5)cc3C(F)(F)F)cc2C1=O [Example 420, (S)-2-(6-(4-(3-(2,3-Dihydro-1H-inden-5-yl)ureido)-2-(trifluoromethyl)phenyl)-1-oxoisoindolin-2-yl)-3-methylbutanoic acid]
> 50% | – | Cc1ccc(C(=O)Nc2ccc(-c3ccc4c(c3)C(=O)N(C3(C(=O)O)CCC3)C4)cc2)cc1 [Example 582, 1-(6-(4-(4-Methylbenzamido)phenyl)-1-oxoisoindolin-2-yl)cyclobutane carboxylic acid]
> 50% | – | CC(C)[C@@H](C(=O)O)N1Cc2ccc(-c3ccc(NC(=O)c4ccc5ccccc5c4)c(F)c3)cc2C1=O [Example 450, (S)-2-(6-(4-(2-Naphthamido)-3-fluorophenyl)-1-oxoisoindolin-2-yl)-3-methyl butanoic acid]
> 50% | – | CC(C)[C@@H](C(=O)O)N1Cc2ccc(-c3ccc(NC(=O)c4ccc(N5CCCC5)nc4)cc3)cc2C1=O [Example 217, (S)-3-Methyl-2-(1-oxo-6-(4-(6-(pyrrolidin-1-yl)nicotinamido)phenyl)isoindolin-2-yl)butanoic acid]
– | + (10-50% Inhibition) | Cc1ccc(NC(=O)Nc2ccc(-c3ccc4c(c3)C(=O)N([C@H](C(=O)O)C(C)C)C4)cc2)cc1 [Example 24]
10 to 50% | – | CC(C)[C@@H](C(=O)O)N1Cc2cc(-c3ccc(NS(=O)(=O)c4ccc(F)cc4F)cc3)ccc2C1=O [Example 291, (S)-2-(5-(4-(2,4-Difluorophenylsulfonamido)phenyl)-1-oxoisoindolin-2-yl)-3-methylbutanoic acid]
> 50% | – | CC(C)[C@@H](C(=O)O)N1Cc2ccc(-c3ccc(NC(=O)Nc4ccccc4Cl)cn3)cc2C1=O [Example 394, (S)-2-(6-(5-(3-(2-Chlorophenyl)ureido)pyridin-2-yl)-1-oxoisoindolin-2-yl)-3-methylbutanoic acid]
10 to 50% | – | CC(C)[C@@H](C(=O)O)N1Cc2cc(-c3ccc(NC(=O)c4ccccc4)cc3)ccc2C1=O [Example 305, (S)-2-(5-(4-Benzamidophenyl)-1-oxoisoindolin-2-yl)-3-methylbutanoic acid]
> 50% | – | Cc1ccc(F)c(C(=O)Nc2ccc(-c3ccc4c(c3)C(=O)N([C@H](C(=O)O)C(C)C)C4)cc2)c1F [Example 166, (S)-2-(6-(4-(2,6-Difluoro-3-methylbenzamido)phenyl)-1-oxoisoindolin-2-yl)-3-methylbutanoic acid]
> 50% | – | CCCCCc1ccc(C(=O)Nc2ccc(-c3ccc4c(c3)C(=O)N([C@H](C(=O)O)C(C)C)C4)c(C)c2)cc1 [Example 474, (S)-3-Methyl-2-(6-(2-methyl-4-(4-pentylbenzamido)phenyl)-1-oxoisoindolin-2-yl)butanoic acid]
10 to 50% | – | CC(C)[C@@H](C(=O)O)N1Cc2ccc(-c3ccc(NC(=O)c4c(Cl)cccc4Cl)cc3)cc2C1=O [Example 130, (S)-2-(6-(4-(2,6-Dichlorobenzamido)phenyl)-1-oxoisoindolin-2-yl)-3-methyl butanoic acid]
> 50% | – | CC(C)[C@@H](C(=O)O)N1Cc2cc(-c3ccc(NC(=S)Nc4cccc(C(F)(F)F)c4)cc3)ccc2C1=O [Example 283, (S)-3-Methyl-2-(1-oxo-5-(4-(3-(3-(trifluoromethyl)phenyl)thioureido)phenyl)isoindolin-2-yl)butanoic acid]
10 to 50% | – | CCCCCc1ccc(C(=O)Nc2ccc(-c3ccc4c(c3)CN([C@H](C(=O)O)C(C)C)C4=O)cc2)cc1 [Example 325, (S)-3-Methyl-2-(1-oxo-5-(4-(4-pentylbenzamido)phenyl)isoindolin-2-yl)butanoic acid]
> 50% | – | CC(C)[C@@H](C(=O)O)N1Cc2ccc(-c3ccc(NC(=O)C4CCCCC4)cc3)cc2C1=O [Example 118, (S)-2-(6-(4-(Cyclohexanecarboxamido)phenyl)-1-oxoisoindolin-2-yl)-3-methylbutanoic acid]
10 to 50% | – | CC(C)[C@@H](C(=O)O)N1Cc2cc(-c3ccc(NC(=O)c4ccc(C(F)(F)F)cc4)cc3)ccc2C1=O [Example 309, (S)-3-Methyl-2-(1-oxo-5-(4-(4-(trifluoromethyl)benzamido)phenyl)isoindolin-2-yl)butanoic acid]
10 to 50% | – | COc1cc(NC(=O)c2ccc(C(C)(C)C)cc2)ccc1-c1ccc2c(c1)C(=O)N([C@H](C(=O)O)C(C)C)C2 [Example 456, (S)-2-(6-(4-(4-tert-Butylbenzamido)-2-methoxyphenyl)-1-oxoisoindolin-2-yl)-3-methylbutanoic acid]
